We go through 1 molecule from patent US5994361A, “Substituted purinyl derivatives with immunomodulating activity” (priority 1995, dated 1999).

For series [1], the system named is T cell response (mixed lymphocyte reaction). Kind of series: Mixed lymphocyte reaction (MLR) assay. The settings on record: at 10^-9 - 10^-5 M. Format: cell-based, C57B1/6 mice and DBA/2 mice. How it is done:
Mixed lymphocyte reaction is an in vitro counterpart of the allograft rejection. Briefly, T cell response was obtained when cells taken from two inbred strains from two outbred individuals of any species were mixed in vitro in culture.
After 4 days incubation, ^3 H thymidine uptake and cytotoxicity assay (CTL) were performed.
3 C57B1/6 mice and 3 DBA/2 mice wre killed and lymphocytes prepared using lympholyte M. The cell concentration was adjusted to 10×10^6 cell/ml for each lysis. DBA/2 cells were irradiated with 3000 Rads. 1 ml of the C57 cells+1 ml of the DBA/2 cells+1 ml of the drug at 3 different concentrations were incubated together for 5 days. Positive control was IL-2 at 15 ng/ml final. After 5 days, the CTL and MLR tests were carried out.
The cells were resuspended and 100 μl of cell suspension were deposited in each of the 96 wells in the plate, 50 μl of Thymidine at 20 μCi/ml was added for 6 hrs. The cells were then collected and counted using a beta counter.

A further series relates to DA-3 mammary carcinoma. Briefly: Compound #1 with Cytoxan 20 mg/kg against established DA-3 mammary carcinoma (Example 93). Format: in vivo. As to conditions: compound #1 25 mg/kg i.p. daily + CTX 20 mg/kg i.v. How it is done:
Combination of compound #1 (25 and 50 mg/kg i.p. daily) plus CTX (20 mg/kg i.v. single bolus) was evaluated against day 4 established DA-3 tumors.

Take `CN(C)c1ncnc2c1ncn2CCCCCOC(=O)N[C@H](CCCNC(=N)N)C(=O)O` [Compound #1, N,N-Dimethylaminopurinyl Pentoxycarbonyl D-Arginine]: the MLR in series [1] is 1.5 - 4 ×. Further, the anti-tumor effect result in the series with DA-3 mammary carcinoma is “no significant effect”.
